Data taken from PubChem BioAssay (NCI).
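48-hour exposure; five concentrations; linearly interpolated endpoints. At the GI50, growth is halved. At the TGI there is no net growth.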

How the values were obtained:
Assay in all cases: DTP human tumour cell line panel, 48 h
[1] = tested on: HCT-15 colon
[2] = tested on: UACC-62 melanoma
[3] = tested on: IGROV1 ovarian
[4] = tested on: MOLT-4 leukemia
[5] = tested on: HT29 colon
[6] = tested on: SK-OV-3 ovarian
[7] = tested on: OVCAR-4 ovarian
[8] = tested on: RPMI-8226 leukemia
[9] = tested on: UO-31 renal
[10] = tested on: OVCAR-8 ovarian
[11] = tested on: UACC-257 melanoma

Row | SMILES | TGI [1] [µM] | TGI [2] [µM] | TGI [3] [µM] | TGI [4] [µM] | TGI [5] [µM] | TGI [6] [µM] | TGI [7] [µM] | TGI [8] [µM] | TGI [9] [µM] | TGI [10] [µM] | TGI [11] [µM] | GI50 [1] [µM] | GI50 [11] [µM] | GI50 [3] [µM] | GI50 [4] [µM] | GI50 [5] [µM] | GI50 [6] [µM] | GI50 [8] [µM] | GI50 [9] [µM] | GI50 [10] [µM]
1 | CO/C(=N/N1CC1C(F)(F)F)c1ccncc1 (centres undefined) | > 100 | > 100 | > 100 | > 100 | > 100 | > 100 | > 100 | > 100 | > 100 | > 100 |  |  |  |  |  |  |  |  |  | 
2 | CCCCOC(=O)CN1C(=O)c2ccccc2C1=O | > 100 | > 100 | > 100 | > 100 | > 100 | > 100 | > 100 |  | > 100 | > 100 | > 100 |  |  |  |  |  |  |  |  | 
3 | O=C(CCl)N1CCCCC1C1(c2cc3ccccc3[nH]2)OCCO1 (centres undefined) | 33.9 | 7.87 | 0.558 | 15.8 | 17.6 | 20.2 | 9.28 | 13.7 | 11.3 | 17.6 | 13.1 |  |  |  |  |  |  |  |  | 
4 | CN(C)CCOc1cc2c(c3ccccc13)-c1ccccc1C2=O | 4.19 | 2.97 | 7.35 | 3.92 | 3.44 | 24.6 | 2.68 | 4.27 | 3.15 | 3.23 | 3.17 |  |  |  |  |  |  |  |  | 
5 | C#CCCCC(=C)C[C@H](OCc1ccccc1)[C@H]1OC(=O)[C@@H]1C | > 100 | > 100 |  |  |  | > 100 | > 100 | 83.7 | 58.8 | > 100 | > 100 |  |  |  |  |  |  |  |  | 
6 | Cc1nc(Nc2nnc(-c3cc([N+](=O)[O-])cc([N+](=O)[O-])c3C)o2)sc1C(=O)CC(=O)Cc1nc2ccc(Cl)cc2[nH]c1=O | > 100 | > 100 | > 100 | > 100 | > 100 | > 100 | > 100 | > 100 | > 100 | > 100 | > 100 |  |  |  |  |  |  |  |  | 
7 | COC(=O)c1cccc(NC(=O)Nc2ccc3oc(=O)c4ccccc4c3c2)c1 | > 100 |  | > 100 | > 100 | > 100 | > 100 |  | > 100 | > 100 | > 100 | > 100 | > 100 | > 100 | > 100 | 36.2 | > 100 | > 100 | 24.5 | > 100 | > 100
